Drawing on paper doi:10.1101/2024.10.01.616164v1 (biorxiv, 2024), this text covers Kd for two compounds.

Where a name gives a salt, the structure may show the parent alone.

Assay [1] has as its target T1, LON-1 (Caenorhabditis elegans, UniProt Q09566).
T1 sequence (Q09566 24-312): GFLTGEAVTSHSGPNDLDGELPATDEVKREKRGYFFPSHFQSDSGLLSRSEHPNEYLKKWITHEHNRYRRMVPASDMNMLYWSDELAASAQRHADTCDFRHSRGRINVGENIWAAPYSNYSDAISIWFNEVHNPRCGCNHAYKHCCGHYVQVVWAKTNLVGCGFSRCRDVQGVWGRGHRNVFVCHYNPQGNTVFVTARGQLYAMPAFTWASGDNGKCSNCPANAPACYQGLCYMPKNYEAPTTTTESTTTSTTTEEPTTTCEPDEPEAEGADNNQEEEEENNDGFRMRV
The assay is described as follows: microscale thermophoresis. Format: binding. A general note: In MST a laser heats a spot of the sample, and binding alters the fluorescence response.

Assay [2] concerns the target LON-1 (Caenorhabditis elegans, UniProt Q09566, V175A). Put plainly: biochemical.
The target of assay [3] is LON-1 (Caenorhabditis elegans, UniProt Q09566, C207S). The assay is described as follows: biochemical.
Chain of LON-1 (Caenorhabditis elegans, UniProt Q09566, C207S) (Q09566 24-312 C207S): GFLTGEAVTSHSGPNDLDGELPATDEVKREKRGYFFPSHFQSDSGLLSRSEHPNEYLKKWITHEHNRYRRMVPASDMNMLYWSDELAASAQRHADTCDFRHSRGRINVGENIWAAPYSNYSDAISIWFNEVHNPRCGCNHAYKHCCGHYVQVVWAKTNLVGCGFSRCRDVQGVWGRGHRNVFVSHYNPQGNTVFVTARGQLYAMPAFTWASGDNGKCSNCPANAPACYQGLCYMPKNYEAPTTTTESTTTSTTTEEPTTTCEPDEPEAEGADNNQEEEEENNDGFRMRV
Assay [4] has as its target LON-1 (Caenorhabditis elegans, UniProt Q09566, C185Y). The assay is described as follows: biochemical.
Assay [5] concerns the target LON-1 (Caenorhabditis elegans, UniProt Q09566, E153A). The assay is described as follows: biochemical.

Chain of LON-1 (Caenorhabditis elegans, UniProt Q09566, E153A) (Q09566 24-312 E153A): as the sequence (Q09566 24-312 C207S) above, with E130A, S184C counted along it
Chain of LON-1 (Caenorhabditis elegans, UniProt Q09566, V175A) (Q09566 24-312 V175A): as the sequence (Q09566 24-312 C207S) above, with V152A, S184C counted along it
Chain of LON-1 (Caenorhabditis elegans, UniProt Q09566, C185Y) (Q09566 24-312 C185Y): as the sequence (Q09566 24-312 C207S) above, with C162Y, S184C counted along it

In general, Kd refers to the free concentration of one partner at which half of the binding sites on the other are occupied at equilibrium, for simple one-to-one binding. High values mean a looser complex, low ones a tighter complex. Turning to `CC(C)CCC[C@@H](C)[C@H]1CC[C@H]2[C@@H]3CC=C4C[C@@H](OS(=O)(=O)O)CC[C@]4(C)[C@H]3CC[C@]12C` [cholesterol sulfate], the dissociation constant (Kd) on LON-1 [1] was roughly 19 µM; at LON-1 [2], 76 ± 24 µM; on LON-1 [3], 332 ± 145 µM; on LON-1 [4], 261 ± 92 µM; at LON-1 [5] it was 26 ± 8 µM.

With `CCCCCCCCCCCCCCCC(=O)O` [palmitic acid], the Kd on LON-1 [1] is roughly 430 µM.
